Results: patent US6375944B1, “Methods and compositions for enhancing the immunostimulatory effect of interleukin-12” (The Wistar Institute of Anatomy and Biology, priority 1998, dated 2002)
“And” between values parts separate entries of the source, which are not always exact repeats. Equal entries are not always repeated.

Columns and labels:
splenocytes = assay: Mitogen and alloantigen stimulation of splenocytes (3H-thymidine incorporation), whole or adherent/nonadherent cocultures; format: cell-based, mice; parameters: Effect on mitogenesis / inhibition of mitogenic responses: dose or concentration left out as unconfirmed
Procedure: The mitogen and alloantigen stimulation of splenocytes assay was performed as follows: In vitro mitogenic stimulation of splenocytes with […] Con A or 100 U/ml rmIL-12 was performed as described [Kurzawa, cited above]. Proliferative responses to allogeneic antigens (mixed lymphocyte reaction, MLR) was measured when splenocytes from the mice were stimulated with 10^5 mitomycin treated A/J splenocytes. Splenocyte fractionation was performed by allowing 10^5 splenocytes to adhere for 90 minutes in 96 well plates, after which the nonadherent cells were removed and cocultured with adherent cells from different wells for assay. When added, antibodies (XMG6 for IFNγ, XT22 for TNFα, AE5 for IL-10 and C17.8 for IL-12 ) were used at […] final concentration. After 72 hours exposure to mitogen, cultures were pulsed with 1 μCi^3H-thymidine for 16 hours, cells were harvested and ^3H incorporation was measured by scintillation counting. Supernatants from cultures assayed for IFNγ by radioimmunoassay (RIA) (using antibodies AN18 and XMG6 [Wysocka, M. et al. 1995 Eur. J. Immunol. 25:672] were harvested 24 or 72 hours after stimulation.
A. Splenocytes from rmIL-12- and PBS-treated C57BL/6 mice were fractioned by adherence to 96 well plastic plates for 90 minutes. The cells were reconstituted in various combinations of adherent and nonadherent cells by overlaying nonadherent cells on the adherent cells. These cocultures were then stimulated with either 2.5 μg/ml Con A, 100 U/ml IL-12, or 10^5 mitomycin C treated A/J (H-2A) splenocytes, as described in the mitogen/alloantigen assay of Example 1.
B. Cocultures were established from splenic adherent and nonadherent cells of PBS-treated mice or from the adherent cells of rmIL-12-treated mice and nonadherent cells of PBS-treated mice. Antibodies XMG6 (to IFNγ), XT22 (to TNFα), AE5 (to IL-10) and C17.8 (to IL-12 ) were added to a final concentration of […] in cocultures containing adherent cells from spleen of rmIL-12-treated mice, also according to the assay described in Example 1.
(§1) Cocultures were established from splenic adherent and nonadherent cells of PBS-treated mice or from the adherent cells of rmIL-12-treated mice and nonadherent cells of PBS-treated mice. Antibodies XMG6 (to IFNγ), XT22 (to TNFα), AE5 (to IL-10) and C17.8 (to IL-12) were added to a final concentration of […] in cocultures containing adherent cells from spleen of rmIL-12-treated mice. An inhibitor of inducible nitric oxide synthase (iNOS), L-NMMA (Sigma), was added to cocultures of adherent cells from rmIL-12 treated mice and nonadherent cells from control mice at a final concentration of […]. Alternatively, D-NMMA (Sigma), a noninhibitory isoform of L-NMMA, was added to other cocultures as a control.

NO production = NO production measured as nitrite in stimulated cell supernatants by the Greiss assay; format: cell-based; parameters: dose or concentration left out as unconfirmed; conditions: cocultures of adherent cells from rmIL-12 treated mice and nonadherent control cells; compared to D-NMMA; two independent measurements
Procedure: as §1
NO production was measured as nitrite concentration in stimulated cell supernatants by the Greiss assay [Green, L. C. et al, Anal. Biochem 126:131 (1982)]. Supernatant (100 μl) was added to 96 well plates; 100 μl of a 1:1 mixture of 1% sulfanilamide dihydrochloride in 2.5% H3PO4 and 0.1% naphthylethylenediamine dihydrochloride in 2.5% H3PO4 was then added to samples. Plates were incubated at room temperature for 10 minutes and A540 was determined using a microplate reader with reference to sodium nitrite standard curves. S-nitroso-N-acetyl-penillamine (SNAP, Sigma), an NO donor, was used as a acellular source of NO and was added to splenocytes from HKB-vaccinated C57BL/6 mice.

SCK cells [1] = assay: Tumor cell rechallenge in mice with established SCK immunity; format: in vivo, A/J mice; conditions: for Prevention of rmIL-12 impairment of immune rejection: given with rmIL-12 therapy, established SCK immunity; for mice that developed tumors: rmIL-12 treated mice with established SCK immunity, data not shown
From the text: Thus, L-NAME prevents rmIL-12 suppression of established antitumor immune responses.

SCK cells [2] = assay: Irradiated wild-type SCK cell vaccination followed by SCK tumor cell challenge; format: in vivo, A/J mice; conditions: for mice that developed tumors: given with irradiated SCK cells and rmIL-12, challenged on day 14
From the text: Female A/J mice (8 mice per group) were vaccinated with 10^6 irradiated SCK cells and received either PBS, rmIL-12, rmIL-12+L-NAME or rmIL-12 and D-NAME on days 0-4 and 7-11. Mice were challenged fourteen days after vaccination with 2.5×10^4 SCK cells in the opposite flank. Tumorigenesis was scored daily, as described above.

SCK tumors = assay: Antitumor activity of rmIL-12 against SCK tumors (tumorigenesis scored daily); format: in vivo, A/J mice
Procedure: Female A/J mice were injected with 2.5×10^4 SCK cells and either PBS, rmIL-12, rmIL-12+L-NAME or rmIL-12 and D-NAME on days 0-4 and 7-11. Tumorigenesis was scored daily, as described above.

SCK cells [3] = assay: SCK.GM cell vaccination followed by SCK tumor cell challenge; format: in vivo, A/J mice; conditions: for Effect on SCK.GM-induced protection: mice not treated with rmIL-12, data not shown
From the text: A. Female A/J mice were vaccinated with 10^6 irradiated SCK.GM cells suspended in PBS at 10^7 trypan blue-excluding cells/ml. Cells were irradiated with 6000 rads from a ^137Cs source, and mice were vaccinated with 10^6 cells s.c. (day 0). […] Vaccinated and naive A/J mice were challenged fourteen days after vaccination with 2.5×10^4 trypan blue-excluding SCK cells in the opposite flank to assay for the presence of tumor immunity. Tumorigenesis was scored daily.

[4] = SCK-vaccinated mice, at 28 days, rmIL-12 alone, or L-NAME/D-NAME given with rmIL-12

Row | Compound | Prevention of rmIL-12 impairment of immune rejection (SCK cells [1]) | mice that developed tumors (SCK cells [1]) [%] | level of protection (SCK cells [2]; [4]) [%] | mice that developed tumors (SCK cells [2]) [%] | Effect on SCK.GM-induced protection (SCK cells [3]) | further results
1 | CNC(=N)NCCC[C@H](N)C(=O)O [L-NMMA, N^G-monomethyl-L-arginine] | – | – | – | – | – | Effect on mitogenesis (splenocytes; cocultures of adherent cells from rmIL-12 treated mice and nonadherent control cells, compared to D-NMMA): restored mitogenesis; reduction of NO levels in the culture supernatant (NO production): 58% and 94%
2 | COC(=O)[C@@H](N)CCCNC(=N)N[N+](=O)[O-] [L-NAME, N^ω-nitro-L-arginine methyl ester] | prevented this impairment of immune rejection | 25 | 50 | 38 | had no effect | level of protection (SCK cells [2]; SCK-vaccinated, given with rmIL-12, at 14 days): 62%; median days to tumor appearance (SCK tumors; 2.5×10^4 SCK cells, treatment days 0-4 and 7-11, L-NAME given with rmIL-12, 9 days without rmIL-12): 17 days; delay of tumor appearance vs. mice given rmIL-12 alone or with D-NAME (SCK tumors; L-NAME given with rmIL-12): 3 days; Effect on SCK tumorigenesis (SCK tumors; given without rmIL-12, data not shown): had no effect on SCK tumorigenesis; delay of tumor appearance vs. untreated mice (SCK tumors; treatment started on day of SCK cell injection, L-NAME given with rmIL-12): 8 days; Prevention of rmIL-12 impairment of SCK.GM vaccine protection (SCK cells [3]; given with rmIL-12 days 0-4 and 7-11, challenge 14 days after vaccination): prevented this impairment
3 | S-nitroso-N-acetyl-penillamine [SNAP, reference compound] | – | – | – | – | – | inhibition of mitogenic responses (splenocytes; splenocytes from HKB-vaccinated C57BL/6 mice, cultures with NO levels as low as): 83-98%
4 | COC(=O)[C@H](N)CCCNC(=N)N[N+](=O)[O-] [D-NAME, N^ω-nitro-D-arginine methyl ester] | not | 75 | 50 | 75 | had no effect | mice that developed tumors (SCK cells [3]; SCK.GM vaccinated, given with rmIL-12, challenge 14 days after vaccination): 75%
